Paper PMC5426080, “Catalytic Intermediate Crystal Structures of Cysteine Desulfurase from the Archaeon Thermococcus onnurineus NA1” (Archaea, 2017)

What was measured:
[1] = biological target: T1, ToCDS (cysteine desulfurase, CDS) (Thermococcus onnurineus, UniProt B6YT87); assay: X-ray crystallography; type: binding
T1 construct: gene TON_0289; full length, 399 residues, N-terminal 7xHis-TEV tag (cleavage not mentioned), E. coli BL21(DE3), about 44 kDa, homodimer; PLP on Lys216, catalytic Cys356; EC 2.8.1.7; primers encode N-terminus MIPEDV and C-terminus KGLKT
T1 sequence (B6YT87 entry or part of it): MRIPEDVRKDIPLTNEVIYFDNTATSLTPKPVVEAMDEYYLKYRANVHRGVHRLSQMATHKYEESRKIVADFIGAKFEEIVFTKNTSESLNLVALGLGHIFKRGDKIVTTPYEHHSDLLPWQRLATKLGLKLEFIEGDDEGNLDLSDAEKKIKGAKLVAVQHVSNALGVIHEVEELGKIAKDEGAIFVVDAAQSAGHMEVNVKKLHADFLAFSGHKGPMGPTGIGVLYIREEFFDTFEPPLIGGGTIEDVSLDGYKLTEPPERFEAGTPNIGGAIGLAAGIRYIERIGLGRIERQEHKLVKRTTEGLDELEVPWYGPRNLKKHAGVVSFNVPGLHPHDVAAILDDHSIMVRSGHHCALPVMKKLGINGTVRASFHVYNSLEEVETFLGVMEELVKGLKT
Text: X-ray crystallography on ToCDS (cysteine desulfurase, CDS) | PLP was Schiff-base linked with […] at the active site. | the alanine was tightly bound: the conserved […] side chain had bifurcated hydrogen bonds

[2] = biological target: cysteine desulfurase from Thermococcus onnurineus NA1 (Thermococcus onnurineus NA1); assay: crystal structure; ToCDS alone (crystal I, NAT, 2.6 Å, space group P212121), a dimer in the asymmetric unit; crystals II-IV soaked or co-crystallised with 5 mM L-cysteine and 1 mM PLP, each with protomers A and B

**Q.** With Cc1ncc(COP(=O)(O)O)c(C=O)c1O [PLP, pyridoxal 5′-phosphate] as the compound, how does the X-ray crystallography ([1]; covalent, internal aldimine Schiff base with Lys216, native crystal I, 2.6 Å, pH 8.5) read?
**A.** PLP was Schiff-base linked with Lys216 at the active site.

**Q.** For C[C@H](N)C(=O)O [alanine], which X-ray crystallography ([1]; crystal III 1.5 Å (protomer A: unbonded alanine, internal aldimine; protomer B: gem-diamine) and crystal II 2.3 Å (gem-diamine, covalent to PLP), from L-cysteine and PLP by cocrystallization or soakin) is on record?
**A.** the alanine was tightly bound: the conserved Arg371 side chain had bifurcated hydrogen bonds

**Q.** How did the stoichiometry N [2] turn out when “cysteine desulfurase from Thermococcus onnurineus NA1 (enzyme)” was run?
**A.** 2
